{"source": "paper PMC5379102", "about": "“Sequence-selective encapsulation and protection of long peptides by a self-assembled Fe^II8L6 cubic cage” (Nature Communications, 2017)", "key": {"[1]": {"target": "cage 1 (Fe^II8L6 cubic cage with zinc porphyrin faces)", "assay": "Ultraviolet-visible titration of cage 1 with guest (host-guest binding)", "experimental": "Ultraviolet–visible absorption spectroscopy measurements were performed using a Perkin Elmer Lambda 750 UV-Vis-NIR spectrophotometer fitted with a PTP-1 Peltier temperature controller accessory. Spectra were obtained in double beam mode using only the (front) analyte beam to record spectra, with air in the (rear) reference path. Samples were analysed using quartz cuvettes with optical path lengths of 1 mm. Unless otherwise specified, 417 nm was the wavelength selected to follow the binding of the guest.\nA solution of 1 in CH3CN:H2O (1:1) (250 μl, 1.5 μM) or pure acetonitrile was transferred to a cuvette. Small aliquots of the guest's solution were titrated into the cuvette. The experiment was performed at room temperature. Each experiment was repeated three times (Supplementary Figs 31–46 and Supplementary Methods). Data obtained from the ultraviolet–visible titration were then fitted using nonlinear analysis with DynaFit programme (Biokin Software)[30] to the binding equation derived for either 1:1 model (porphyrin:guest with one imidazole group) or 2:1 model (porphyrin:guest with two imidazole groups), except in the case of G7. G7 contains two histidine amino acids in consecutive positions, therefore the distance between the imidazole rings of these two amino acids is too short to allow the interaction with two porphyrins at the same time. In this case, the binding model was 2:1 peptide:cage.\nThe dilution effect was corrected by multiplying the observe intensity for the dilution factor before the fitting. The error reported for each affinity value is the formal standard error calculated by DynaFit[30] as the square root of the diagonal elements of the variance–covariance matrix. This s.e. gives an idea of the precision of the fitted value.\nThe experimental data obtained using UV-Vis spectroscopy for each guest was fitted using\nnonlinear analysis with DynaFit program (Biokin Software)2 to the binding equation derived\nfor 1:1 model porphyrin:imidazole group (non-cooperative model). […]"}, "[2]": {"assay": "Trypsinization experiments (peptide hydrolysis by trypsin, with or without 1)", "format": "in vitro ADME", "details": "isolated enzyme trypsin; peptide 20 μM, trypsin 6 μM (0.3 equiv.), 40% CH3CN / 50% phosphate buffer (0.1 M, pH 7.5, 0.2 M NaCl) / 10% H2O, room temperature, 30 min, RP-HPLC UV; read-out: cleavage by trypsin, single peptide, no 1", "experimental": "(§1) Finally, we envisaged that the closed cubic architecture of 1 could protect its histidine-containing peptide guests from enzymatic degradation. For these experiments we used the protease trypsin, which cleaves exclusively on the C-terminal side of lysine and arginine residues. We initially examined G7 as a substrate. […] The incubation of a 20 μM solution of G8 with 0.3 equiv. of trypsin in a mixture of acetonitrile and phosphate buffer (pH=7.5) for 30 min led to the cleavage of G8 in 76% yield (Supplementary Fig. 49). When the same reaction was run in the presence of 0.6 equiv. of 1 (2:1 binding stoichiometry), the extent of cleavage was only 9% (Supplementary Fig. 50). The low degree of enzymatic degradation observed is consistent with the 9 μM dissociation constant of the adduct between 1 and G8, which implies the presence of a small amount of free peptide under the reaction conditions. Importantly, when the same experiment was carried out with a non-binding G9 in place of G8, with or without 1, quantitative G9 cleavage was observed (Supplementary Figs 52 and 53). In a further test, we treated a mixture of both peptides and 1 with trypsin, and incubated the mixture under identical conditions. In this case almost complete selectivity was observed.\n(§2) Trypsinization reactions were followed by analytical RP-HPLC with an Agilent 1,100 series LC using an Eclipse XDB-C18 analytical column (3 × 150 mm, 3.5 μm). Standard conditions for analytical RP-HPLC consisted on a linear gradient from 0 to 10% of solvent B in 5 min, it then increased from 10 to 70% in 30 min at a flow rate of 1.0 ml min^−1 (A: water with 0.1% trifluoroacetic acid (TFA), B: acetonitrile with 0.1% TFA); 55 μl of solution was injected to the column each time. Compounds were detected by ultraviolet absorption and subsequently characterized by electrospray ionization (ESI) (Supplementary Figs 48–56).\n(§3) The samples were prepared in 200 μl solution (40% CH3CN, 50% phosphate buffer and 10% H2O; phosphate buffer: 0.1 M, pH 7.5, 0.2 M NaCl). The concentration of the solution components were: peptides (G8 and G9) 20 μM, trypsin 6 μM and 1 12 μM. However, not all components were present in each sample, as noted in the main text. The reaction mixtures were stirred at room temperature for 30 min. It was observed that longer reaction times cause degradation of 1 due to the high concentration of NaCl in the phosphate buffer. After this time, H2O (200 μl) and acetic acid (8 μl) were added to quench the reaction. In the case of the control experiments with free Zn porphyrins, the concentration of the porphyrin was 72 μM."}, "trypsin": {"test_system": "trypsin", "assay": "Trypsinization experiments (peptide hydrolysis by trypsin, with or without 1)", "format": "in vitro ADME", "experimental": "as §1, §2, §3"}, "Solubility observations": {"assay": "Solubility observations", "format": "physicochemical", "experimental": "In a J-Young NMR tube porphyrin A (4 mg, 3.3 μmol, 6 equiv.; Supplementary Figs 1–4 and Supplementary Methods), iron(II) triflate (1.5 mg, 4.4 μmol, 8 equiv.) and 5,6,7,8-tetrahydronaphthalen-2-amine B (1.9 mg, 13 μmol, 24 equiv.) were suspended in [D7]DMF (400 μl) and [D3]MeCN (100 μl). The solution was deoxygenated by three freeze-pump-thaw cycles, the tube was sealed, and heated in the oil bath for 8 h at 70 °C. After this time, the solution was opened to air and cooled to room temperature. […] The suspension was centrifuged and the solvent above the solid was removed. The purple solid was washed twice with chloroform (3 ml) and partially dried under nitrogen. The solid was dissolved in acetonitrile (0.5 ml) after drying with nitrogen. 1 (Supplementary Figs 5–12) was not soluble in pure water, but it is soluble in a 1:1 acetonitrile:water mixture (1 mg ml^−1)."}, "[3]": {"test_system": "cage 1 (Fe^II8L6 cubic cage with zinc porphyrin faces)", "assay": "Host-guest chemistry studied by 1H NMR titration", "format": "binding", "details": "shifts of β-pyrrolic protons of 1", "from_the_text": "We used 1-methylimidazole (G1) as an initial probe, following its binding by ^1H NMR spectroscopy. Due to the large cavity, only slight upfield shifts of the signals of the β-pyrrolic protons of 1 were observed following the addition of G1. […] However, when a 1:1 mixture of water:acetonitrile was used, it was necessary to add 70 equivalents to achieve saturation (Supplementary Fig. 27). We infer the weaker interaction in the presence of water to be due to competing hydrogen bonding between water and imidazole.\nA solution of 1 (0.5 ml) was prepared in a mixture of CD3CN:D2O (1:1) or in pure CD3CN and was transferred to a J-Young NMR tube. Aliquots of the guest were added in the same mixture of solvents. The NMR spectrum was recorded after each addition and the sample was mixed thoroughly before each measurement (Supplementary Figs 26–30)."}, "[4]": {"details": "1:1 acetonitrile:water, 20 °C, 1 at 1.5 μM, UV-Vis at 417 nm, non-cooperative 1:1 imidazole (or thiazole):porphyrin model, except G7 (2:1 peptide:1), DynaFit fit, ± formal standard error, repeated three times"}, "[5]": {"details": "peptide 20 μM, trypsin 6 μM, 1 12 μM, 40% CH3CN / 50% phosphate buffer (0.1 M, pH 7.5, 0.2 M NaCl) / 10% H2O, room temperature, 30 min, RP-HPLC UV"}, "[6]": {"details": "1:1 acetonitrile:water, 20 °C, 1 at 1.5 μM, UV-Vis at 417 nm, non-cooperative 1:1 imidazole (or thiazole):porphyrin model, except G7 (2:1 peptide:1), DynaFit fit, ± formal standard error, repeated three times, read-out: Kd (μM) in CD3CN:H2O (1:1)"}}, "note": "“Also recorded” adds a separate entry of the source. Where two headings read alike, the source gives them in different places. Non-standard residues stand in square brackets, D forms with d. Residues, ends and D or L forms follow the SMILES beside them. No end group written: not given here. *: point of attachment. Dnp = O=[N+]([O-])c1ccc(*)c([N+](=O)[O-])c1; 2Abz = Nc1ccccc1C(=O)O", "data": [{"compound": "CC[C@H](C)[C@H](NC(=O)[C@@H](N)CCC(=O)O)C(=O)N[C@@H](CC(C)C)C(=O)N[C@@H](CC(=O)O)C(=O)N[C@H](C(=O)N1CCC[C@H]1C(=O)N[C@@H](CO)C(=O)N[C@H](C(=O)O)[C@@H](C)O)C(C)C", "note": "[Guest G10, H2N-E-I-L-D-V-P-S-T-OH]", "values": [{"measurement": "Kd (μM) in CD3CN:H2O (1:1)", "setting": "[1]; [4]", "value": "no binding interaction; also recorded: not observed to interact"}]}, {"compound": "H-SSWGHVGKYVHGWSHVS-OH [Guest G8]", "values": [{"measurement": "metabolised at 0.5 h", "setting": "[2]", "value": 76, "unit": "%"}, {"measurement": "yield of cleavage by trypsin, mixture of G8 and G9, 0.6 equiv of 1", "setting": "trypsin; both peptides 20 μM, trypsin 6 μM, 1 12 μM, 40% CH3CN / phosphate buffer pH 7.5, room temperature, 30 min, RP-HPLC UV", "value": 11, "unit": "%"}, {"measurement": "cleavage by trypsin, single peptide, in the presence of 0.6 equiv. of 1", "setting": "trypsin; [5]", "value": 9, "unit": "%"}, {"measurement": "Kd", "setting": "[1]; [6]", "value": "9 ± 2", "unit": "µM"}, {"measurement": "times lower affinity than G7", "setting": "[1]; in 1:1 acetonitrile:water", "value": 100}]}, {"compound": "c1cscn1", "note": "[thiazole]", "values": [{"measurement": "Kd", "setting": "[1]; [6]", "value": "1000 ± 200", "unit": "µM"}]}, {"compound": "VFQFLGKIIHHVGNFVHGFSHVF [Guest G7, Clavanin A]", "values": [{"measurement": "solubility at neutral pH", "setting": "Solubility observations; trypsinization conditions", "value": "low solubility"}, {"measurement": "equivalents of guest that saturate the cage (UV-Vis)", "setting": "[1]; 1:1 CH3CN:H2O, 20 °C, 1 at 1.5 µM (G7 3 µM)", "value": "two"}, {"measurement": "Kd", "setting": "[1]; 1:1 CH3CN:H2O, 20 °C, 1 at 1.5 µM (Supplementary Figure 43), 2:1 peptide:1 model, read-out: Kd, titration at 1.5 µM cage", "value": "0.06 ± 0.05", "unit": "µM"}, {"measurement": "Kd", "setting": "[1]; [6]", "value": "0.08 ± 0.02", "unit": "µM"}]}, {"compound": "tetrakis(formylpyridine)porphyrin A", "values": [{"measurement": "solubility in water or acetonitrile", "setting": "Solubility observations; in either water or acetonitrile", "value": "not observed to dissolve"}]}, {"compound": "Cn1ccnc1", "note": "[Guest G1, 1-methylimidazole]", "values": [{"measurement": "Kd", "setting": "[1]; [6]", "value": "900 ± 70", "unit": "µM"}, {"measurement": "Kd", "setting": "[1]; pure acetonitrile, 20 °C, 1 at 1.5 μM, UV-Vis at 417 nm, non-cooperative 1:1 imidazole:porphyrin model, DynaFit fit, ± formal standard error, repeated three times, read-out: Kd (μM) in CD3CN", "value": "30 ± 1", "unit": "µM"}, {"measurement": "equivalents of guest at saturation (1H NMR)", "setting": "[3]; in 1:1 water:acetonitrile", "value": 70, "unit": "equivalents"}, {"measurement": "equivalents of guest at saturation (1H NMR)", "setting": "[3]; in acetonitrile", "value": "seven"}]}, {"compound": "CC[C@H](C)[C@H](NC(=O)CNC(=O)c1ccccc1N)C(=O)N[C@H](C(=O)N[C@@H](CCCNC(=N)N)C(=O)N[C@@H](C)C(=O)N[C@@H](CCCCNc1ccc([N+](=O)[O-])cc1[N+](=O)[O-])C(=O)O)C(C)C", "note": "[Guest G9, Abz-NH-G-I-V-R-A-K(Dnp)-OH] (H-[2Abz]GIVRAK(Dnp)-OH)", "values": [{"measurement": "hydrolysis by trypsin in the presence of free Zn porphyrin", "setting": "trypsin; free A or water-soluble Zn-tetrakis(4-sulfonatophenyl)porphyrin 72 μM, peptide 20 μM, trypsin 6 μM, pH 7.5, 30 min", "value": "unaffected"}, {"measurement": "cleavage by trypsin, single peptide, no 1", "setting": "trypsin; peptide 20 μM, trypsin 6 μM (0.3 equiv.), 40% CH3CN / 50% phosphate buffer (0.1 M, pH 7.5, 0.2 M NaCl) / 10% H2O, room temperature, 30 min, RP-HPLC UV", "value": "quantitative"}, {"measurement": "cleavage by trypsin, single peptide, in the presence of 0.6 equiv. of 1", "setting": "trypsin; [5]", "value": "quantitative"}, {"measurement": "Kd (μM) in CD3CN:H2O (1:1)", "setting": "[1]; [4]", "value": "no binding interaction; also recorded: not observed to interact"}]}]}
